According to patent US11559575B2, “Multi-epitopic peptide compounds and vaccines against leishmaniasis” (INSTITUT DE RECHERCHE POUR LE DEVELOPPEMENT, priority 2018, dated 2023):
“Also recorded” adds a separate entry of the source.

These sequences were tested on HLA alleles of class II (assay: Affinity of epitopes for HLA alleles of class II). Settings: H2B-II core epitopes, Table 1.
Format: binding, human
Text: The multiepitopic peptide compounds (24 to 40-mer), having a high affinity with a maximized number of HLA molecules of class I and of class II, such as the affinities for the alleles HLA of class I and HLA of class II of the epitopes in the peptides of the sequences SEQ ID NO: 22, 23, 65, 66, 69, 73, 77, 96, 97, 137, 138, and 157, 185, have a high immunoprevalent potential corresponding to an optimal vaccine coverage, in particular for the populations concerned. The degree of coverage of the peptide compounds of the invention show a very high added value compared with the peptides of the prior art.

Row | Sequence | Affinity HLA alleles of class II
1 | AQMSMSHRT (Leishmania major) [SEQ ID NO: 42] | HLA-DRB1*07:01
2 | GRSLKAINA (Leishmania major) [SEQ ID NO: 43] | HLA-DRB1*01:01
3 | INAQMSMSH (Leishmania major) [SEQ ID NO: 44] | HLA-DRB1*04:01,; also recorded: HLA-DRB1*04:05,; also recorded: HLA-DRB1*09:01,; also recorded: HLA-DRB1*11:01,; also recorded: HLA-DRB1*15:01,; also recorded: HLA-DRB4*01:01,; also recorded: HLA-DRB5*01:01
4 | LKAINAQMS (Leishmania major) [SEQ ID NO: 45] | HLA-DRB1*04:05,; also recorded: HLA-DRB1*07:01,; also recorded: HLA-DRB1*08:02,; also recorded: HLA-DRB1*09:01,; also recorded: HLA-DRB1*11:01,; also recorded: HLA-DRB4*01:01,; also recorded: HLA-DRB5*01:01

Same assay, conditions: H2B-II peptides, Table 1

Row | Sequence | Concatenation affinity for the HLA alleles of class II
5 | AINAQMSMSHRTMKI (Leishmania major) [SEQ ID NO: 40] | HLA-DRB1*01:01, HLA-DRB1*04:01, HLA-DRB1*09:01,; also recorded: HLA-DRB1*15:01, HLA-DRB4*01:01, HLA-DRB5*01:01,; also recorded: HLA-DRB3*01:01, HLA-DRB1*11:01, HLA-DRB1*07:01
6 | GRSLKAINAQMSMSH (Leishmania major) [SEQ ID NO: 35] | HLA-DRB1*15:01, HLA-DRB1*01:01, HLA-DRB1*04:05,; also recorded: HLA-DRB1*07:01, HLA-DRB1*08:02, HLA-DRB1*09:01,; also recorded: HLA-DRB1*11:01, HLA-DRB4*01:01, HLA-DRB5*01:01,; also recorded: HLA-DRB1*04:01, HLA-DRB1*13:02
7 | INAQMSMSHRTMKIV (Leishmania major) [SEQ ID NO: 41] | HLA-DRB1*04:01, HLA-DRB1*15:01, HLA-DRB1*05:01,; also recorded: HLA-DRB1*03:01, HLA-DRB1*09:01, HLA-DRB1*11:01,; also recorded: HLA-DRB1*01:01, HLA-DRB4*01:01, HLA-DRB1*07:01,; also recorded: HLA-DRB1*13:02
8 | KAINAQMSMSHRTMK (Leishmania major) [SEQ ID NO: 39] | HLA-DRB1*07:01, HLA-DRB1*04:01, HLA-DRB1*04:05,; also recorded: HLA-DRB1*09:01, HLA-DRB1*11:01, HLA-DRB1*15:01,; also recorded: HLA-DRB5*01:01, HLA-DRB4*01:01, HLA-DRB1*03:01,
9 | KPKRSWNVYVGRSLK (Leishmania major) [SEQ ID NO: 25] | HLA-DRB5*01:01, HLA-DRB1*01:01, HLA-DRB1*07:01,; also recorded: HLA-DRB1*09:01, HLA-DRB1*15:01
10 | KRSWNVYVGRSLKAI (Leishmania major) [SEQ ID NO: 27] | HLA-DRB1*01:01, HLA-DRB1*03:01, HLA-DRB1*04:01,; also recorded: HLA-DRB1*11:01, HLA-DRB1*13:02, HLA-DRB1*07:01,; also recorded: HLA-DRB1*09:01, HLA-DRB1*15:01, HLA-DRB5*01:01,; also recorded: HLA-DPA1*02:01/DPB1*01:01
11 | LKAINAQMSMSHRTM (Leishmania major) [SEQ ID NO: 38] | HLA-DRB1*07:01, HLA-DRB1*04:01, HLA-DRB1*04:05,; also recorded: HLA-DRB1*09:01, HLA-DRB1*11:01, HLA-DRB1*15:01,; also recorded: HLA-DRB5*01:01, HLA-DRB1*01:01, HLA-DRB4*01:01,

Same assay, conditions: LmLRAB-IIA core, Table 2

Row | Sequence | Concatenation affinity for HLA alleles of class II
12 | HLSIVADHM (Leishmania major) [SEQ ID NO: 88] | HLA-DRB1*01:01
13 | LHSVVGRHL (Leishmania major) [SEQ ID NO: 90] | HLA-DRB1*11:01; also recorded: HLA-DRB1*15:01; also recorded: HLA-DRB4*01:01; also recorded: HLA-DRB5*01:01; also recorded: HLA-DRB1*07:01; also recorded: HLA-DRB1*09:01

Same assay, conditions: LmLRAB-IIA peptides, Table 2

Row | Sequence | Concatenation affinity for HLA alleles of class II
14 | GRHLSIVADHMPHLD (Leishmania major) [SEQ ID NO: 86] | HLA-DRB3*01:01,; also recorded: HLA-DRB1*03:01,; also recorded: HLA-DRB1*13:02,
15 | GRLHSVVGRHLSIVA (Leishmania major) [SEQ ID NO: 79] | HLA-DRB1*07:01,; also recorded: HLA-DRB5*01:01,; also recorded: HLA-DRB1*15:01,; also recorded: HLA-DRB1*11:01,; also recorded: HLA-DRB1*09:01,; also recorded: HLA-DRB4*01:01
16 | HSVVGRHLSIVADHM (Leishmania major) [SEQ ID NO: 82] | HLA-DRB1*15:01
17 | KGRLHSVVGRHLSIV (Leishmania major) [SEQ ID NO: 78] | HLA-DRB1*07:01,; also recorded: HLA-DRB5*01:01,; also recorded: HLA-DRB1*11:01,; also recorded: HLA-DRB1*15:01,; also recorded: HLA-DRB1*09:01,; also recorded: HLA-DRB4*01:01
18 | LHSVVGRHLSIVADH (Leishmania major) [SEQ ID NO: 81] | HLA-DRB1*07:01,; also recorded: HLA-DRB1*15:01,; also recorded: HLA-DRB5*01:01,; also recorded: HLA-DRB1*11:01,; also recorded: HLA-DRB1*09:01,

Same assay, conditions: LmlRAB-IIB core, Table 2

Row | Sequence | Concatenation affinity for HLA alleles of class II
19 | AIVTSRKVQ (Leishmania major) [SEQ ID NO: 119] | HLA-DRB1*11:01
20 | HYSEVSAKT (Leishmania major) [SEQ ID NO: 122] | HLA-DRB1*04:01
21 | IVTSRKVQE (Leishmania major) [SEQ ID NO: 123] | HLA-DRB1*03:01,; also recorded: HLA-DRB1*08:02,; also recorded: HLA-DRB1*11:01
22 | LFTDVHYSE (Leishmania major) [SEQ ID NO: 124] | HLA-DRB1*03:01,; also recorded: HLA-DRB3*01:01,; also recorded: DPB1*04:01,; also recorded: HLA-DPA1*02:01/; also recorded: HLA-DPA1*03:01/; also recorded: DPB1*04:02

Same assay, conditions: LmlRAB-IIB peptides, Table 2

Row | Sequence | Concatenation affinity for HLA alleles of class II
23 | AIVTSRKVQEEVFDL (Leishmania major) [SEQ ID NO: 98] | HLA-DRB1*03:01, HLA-DRB1*11:01,; also recorded: HLA-DRB1*12:01
24 | DLFTDVHYSEVSAKT (Leishmania major) [SEQ ID NO: 99] | HLA-DRB1*04:01, HLA-DRB7*01:01,; also recorded: HLA-DPA1*01:03/DPB1*02:01,; also recorded: HLA-DPA1*01/DPB1*04:01, HLA-DPA1*02:01/; also recorded: HLA-DPB1*14:01
25 | EEVFDLFTDVHYSEV (Leishmania major) [SEQ ID NO: 100] | HLA-DRB1*01:01, HLA-DRB1*03:01,; also recorded: HLA-DRB1*04:01, HLA-DRB1*04:05,; also recorded: HLA-DRB1*07:01, HLA-DRB1*15:01,; also recorded: HLA-DRB1*12:01, HLA-DRB3*01:01,; also recorded: HLA-DPA1*01:03/DPB1*02:01,; also recorded: HLA-DPA1*01/DPB1*04:01, HLA-DPA1*02:01/; also recorded: HLA-DPB1*14:01
26 | ENAIVTSRKVQEEVF (Leishmania major) [SEQ ID NO: 101] | HLA-DRB1*03:01, HLA-DRB1*07:01,; also recorded: HLA-DRB1*08:02, HLA-DRB1*11:01,; also recorded: HLA-DRB1*12:01
27 | FDLFTDVHYSEVSAK (Leishmania major) [SEQ ID NO: 103] | HLA-DRB1*01:01, HLA-DRB1*03:01,; also recorded: HLA-DRB1*07:01, HLA-DRB1*09:01,; also recorded: HLA-DPA1*03:01/DPB1*04:02,; also recorded: HLA-DPA1*02:01/HLA-DPB1*14:01
28 | GRSENAIVTSRKVQE (Leishmania major) [SEQ ID NO: 104] | HLA-DRB1*01:01, HLA-DRB1*03:01,; also recorded: HLA-DRB1*07:01, HLA-DRB1*11:01,; also recorded: HLA-DRB1*12:01, HLA-DRB5*01:01
29 | IVTSRKVQEEVFDLF (Leishmania major) [SEQ ID NO: 105] | HLA-DRB1*03:01, HLA-DRB1*11:01,; also recorded: HLA-DPA1*01:03/DPB1*02:01,; also recorded: HLA-DPA1*01/DPB1*04:01,; also recorded: HLA-DPA1*02:01/DPB1*05:01,; also recorded: HLA-DPA1*02:01/HLA-DPB1*14:01
30 | KGRSENAIVTSRKVQ (Leishmania major) [SEQ ID NO: 106] | HLA-DRB1*01:01, HLA-DRB1*07:01,; also recorded: HLA-DRB1*11:01, HLA-DRB1*12:01,; also recorded: HLA-DRB5*01:01
31 | LFTDVHYSEVSAKTK (Leishmania major) [SEQ ID NO: 108] | HLA-DRB1*01:01, HLA-DRB1*04:01,; also recorded: HLA-DRB1*07:01, HLA-DRB1*09:01,; also recorded: HLA-DRB5*01:01, HLA-DPA1*01:03/DPB1*02:01,; also recorded: HLA-DPA1*01/DPB1*04:01,; also recorded: HLA-DPA1*02:01/HLA-DPB1*14:01

Same assay, conditions: PSA KC-2.6 core, Table 3

Row | Sequence | Concatenation affinity for HLA alleles of class II
32 | GYFLTDEKT (listed as Leishmania infantum) [SEQ ID NO: 147] | HLA-DRB1*04:01,; also recorded: HLA-DPA1*02:01/; also recorded: DPB1*01:01

Same assay, conditions: PSA KC-2.6 peptides, Table 3

Row | Sequence | Concatenation affinity for HLA alleles of class II
33 | EGYFLTDEKTSLVYG (listed as Leishmania infantum) [SEQ ID NO: 139] | HLA-DRB1*12:01, HLA-DRB1*13:02,; also recorded: HLA-DRB3*01:01, HLA-DRB3*02:02,; also recorded: HLA-DPA1*03:01/DPB1*04:02; also recorded: HLA-DRB1*01:01, HLA-DRB1*03:01,; also recorded: HLA-DRB1*04:01, HLA-DRB1*04:05,; also recorded: HLA-DRB1*07:01, HLA-DRB1*11:01,
34 | FLTDEKTSLVYGDGG (listed as Leishmania infantum) [SEQ ID NO: 140] | HLA-DRB1*03:01, HLA-DRB3*01:01
35 | GEGYFLTDEKTSLVY (listed as Leishmania infantum) [SEQ ID NO: 141] | HLA-DRB1*01:01, HLA-DRB1*03:01,; also recorded: HLA-DRB1*04:01, HLA-DRB1*04:05,; also recorded: HLA-DRB1*07:01, HLA-DRB1*11:01,; also recorded: HLA-DRB1*12:01, HLA-DRB1*13:02,; also recorded: HLA-DRB3*01:01, HLA-DRB3*02:02,; also recorded: HLA-DPA1*03:01/DPB1*04:02,; also recorded: HLA-DPA1*02:01/HDPB1*14:01
36 | GYFLTDEKTSLVYGD (listed as Leishmania infantum) [SEQ ID NO: 142] | HLA-DRB1*01:01, HLA-DRB1*03:01,; also recorded: HLA-DRB1*04:01, HLA-DRB1*07:01,; also recorded: HLA-DRB1*11:01, HLA-DRB3*01:01,; also recorded: HLA-DRB3*02:02,; also recorded: HLA-DPA1*02:01/DPB1*14:01,; also recorded: HLA-DPA1*03:01/DPB1*04:02

Same assay, conditions: PSA KC-2.7 core, Table 3

Row | Sequence | Concatenation affinity for HLA alleles of class II
37 | DFSNMGLLL (listed as Leishmania infantum) [SEQ ID NO: 171] | HLA-DPA1*01:03/; also recorded: DPB1*04:01,; also recorded: HLA-DPA1*03:01/; also recorded: DPB1*04:02
38 | FSNMGLLLS (listed as Leishmania infantum) [SEQ ID NO: 172] | HLA-DRB1*11:01
39 | IRDLDFSNM (listed as Leishmania infantum) [SEQ ID NO: 174] | HLA-DRB1*01:01,; also recorded: HLA-DRB4*01:01

Same assay, conditions: PSA KC-2.7 peptides, Table 3

Row | Sequence | Concatenation affinity for HLA alleles of class II
40 | DYSHSMIRDLDFSNM (listed as Leishmania infantum) [SEQ ID NO: 158] | HLA-DRB1*04:01, HLA-DRB1*04:05,; also recorded: HLA-DRB1*07:01, HLA-DRB1*09:01,; also recorded: HLA-DRB1*12:01, HLA-DRB4*01:01,; also recorded: HLA-DPA1*02:01/DPB1*14:01
41 | GSDYSHSMIRDLDFS (listed as Leishmania infantum) [SEQ ID NO: 159] | HLA-DRB1*01:01, HLA-DRB1*04:05,; also recorded: HLA-DRB1*07:01, HLA-DRB1*09:01,; also recorded: HLA-DRB4*01:01, HLA-DRB5*01:01,; also recorded: HLA-DPA1*02:01/DPB1*14:01
